{
  "source": "patent US20210282399A1",
  "about": "“FUNGICIDAL COMPOSITION” (priority 2018, published 2021)",
  "key": {"Phakopsora pachyrhizi [1]": {"tested_on": "Phakopsora pachyrhizi", "assay": "Flow cytometric assay of fungicide efficacy on Phakopsora pachyrhizi urediniospores (healthy vs dead spores, metabolic activity); Wadley and Colby evaluation", "type": "cell-based", "conditions": "for EC50 (Mean) / EC50: based on perturbation of the metabolic activity", "description": "in which E represents the expected effect, e.g. percentage of pest control, for the combination of the three active ingredient at defined doses (for example equal to x, y and z respectively), X is the effect, e.g. percentage of pest control, observed for compound (I) at a defined dose (equal to x), Y is the effect, e.g. percentage of pest control, observed for compound (II) at a defined dose (equal to y), Z is the effect, e.g. percentage of pest control, observed for compound (III) at a defined dose (equal to z). When the effect, e.g. percentage of pest control, observed for the combination is greater than the expected effect, there is a synergistic effect. The ratio of observed action (Eobs) and expected action (Eexp), i.e. Eobs/Eexp expresses the factor of interaction level (R) which may be interpreted in accordance with Table 1a below.\nIn the Wadley method, synergistic activity is determined from dose response curves. With this method, the efficacy of the active ingredient (“a.i.”) is determined by comparing the degree of fungal attack on treated plants with that on untreated, similarly inoculated and incubated check plants. Each a.i. is generally tested at multiple. (e.g., 6) concentrations, and dose response curves are generated. The dose response curves are used to establish the EC50 (i.e., the effective concentration of a.i. providing 50% disease control) of the individual compounds as well as of the combinations (EC50Observed). The experimentally found values of the mixture at a given weight ratio are compared with the values that would have been found were only a complementary efficacy of the components was present as follows:\nECtheo=(a+b)/[(a/ECA)+(b/ECB)]\nECtheo=(a+b+c)/[(a/ECA)+(b/ECB+(c/ECC)]\nThe ratio EC50 (A+B)Theo/EC50(A+B)observed expresses the factor of interaction level (R) which may be interpreted in accordance with Table 1b below.\nSoybean rust, caused by Phakopsora pachyrhizi, is one of the most important foliar diseases of soybean worldwide. Seed of soybean were sown in pots in a loam-vermiculite soil mix and placed inside a growth chamber maintained at 18° C./26° C. night/day and 60 to 70% RH with 16 h of light for 3 weeks.\nFirst leaves were harvested and placed in Petri dishes on 1% water agar. A spore suspension (1×10^5 spores/ml of water) were prepared from infected leaf samples and was sprayed on leaf pieces using an atomizer attached to an air compressor. Petri dishes containing leaf pieces were incubated inside a growth chamber maintained at 18° C./26° C. night/day and 60 to 70% RH with 16 h of light during 2-3 weeks. Urediniospores (1×10^5 spores/ml of water) were harvested from infected leaf samples and equal volumes of spore suspension and fungicide diluted in water were mixed in 96 well plate. Spores are stained by two fluorescent dyes, one which stained dead spores and a one for which intensity of staining is directly correlated to metabolic activity.\nFlow cytometric analyses were performed on a CyFlow Cube 8 equipped with an autoloading station (Sysmex Partec GmbH, Gorlittz, Germany). The fluorescences were collected for 2000 to 3000 spores per well and were used to discriminate: (i) healthy spores and (ii) dead spores. The fungicide efficacies were then calculated from the percentage of healthy spores in control condition and in treated condition.\nThe EC50 is based the perturbation of the metabolic activity."}, "Phakopsora pachyrhizi [2]": {"tested_on": "Phakopsora pachyrhizi", "assay": "Field fungicide tests for Asian soybean rust on soybean, Brazil", "type": "in vivo", "conditions": "soybean field plots, three foliar applications; fenpropidin 75-300 g a.i./ha; FIGS. 1 and 2", "experimental": "The experiments for fungicide tests for Asian soybean rust (Phakopsora pachyrhizi) were carried out at Experimental Stations in different regions of Brazil. Each plot consisted of at least 15.0 m^2 (3.0 m×5.0 m). The experimental design was a randomized block design with four replicates, using soybean varieties adapted to each region. Three applications of foliar treatments were carried out at 10 to 15 day intervals, depending on the soybean rust pressure at each site. The applications were made with backpack sprayer pressurized with CO^2 set to apply 150 L. ha-1 of spray volume and 0.460 L/min per nozzle. […] The applications of the treatments were performed when the soybean was in stages 60 (First flowers opened (sporadically in population), 72 (About 20% of pods have reached final length (15-20 mm)) and 79 (Approx. pods have reached final length (15-20 mm), seeds filling the cavity of the majority of pods) of the BBCH international scale, respectively. The results were evaluated prior to the application of the treatments, and at 7, 14 and 21, 28 and 35 days after the first application through the visual evaluation of the percentage of disease severity per plot. The harvest was evaluated at a minimum of 5.0 m^2 per plot, and the data were transformed into kg·ha-1."}},
  "note": "Values joined by “and” are separate entries in the source; they are usually repeats but may differ in a detail not shown here. Equal values may be shown once.",
  "data": [
    {"compound": "Mancozeb [Formulated Mancozeb]", "values": [
      {"measurement": "Efficacy %", "setting": "Phakopsora pachyrhizi [1]; Mancozeb dose 0.0128 ppm", "value": 33.27, "unit": "%"},
      {"measurement": "Efficacy %", "setting": "Phakopsora pachyrhizi [1]; Mancozeb dose 0.064 ppm", "value": 50.68, "unit": "%"},
      {"measurement": "EC50 (Mean)", "setting": "Phakopsora pachyrhizi [1]; mean of Exp 1-3", "value": "<>0.042 ppm"},
      {"measurement": "EC50", "setting": "Phakopsora pachyrhizi [1]; single experiments Exp 1-3", "value": "<>0.037 ppm and <>0.058 ppm and <>0.032 ppm"},
      {"measurement": "% of efficiency, Mean", "setting": "Phakopsora pachyrhizi [1]; dose 0.00256 ppm, mean of experiments", "value": 11.22, "unit": "%"},
      {"measurement": "% of efficiency, Mean", "setting": "Phakopsora pachyrhizi [1]; dose 0.0128 ppm, mean of experiments", "value": 33.27, "unit": "%"},
      {"measurement": "% of efficiency", "setting": "Phakopsora pachyrhizi [1]; dose 0.0128 ppm, single experiments", "value": "39.9% and 26.2% and 33.7%"},
      {"measurement": "% of efficiency, Mean", "setting": "Phakopsora pachyrhizi [1]; dose 0.064 ppm, mean of experiments", "value": 50.88, "unit": "%"},
      {"measurement": "% of efficiency", "setting": "Phakopsora pachyrhizi [1]; dose 0.064 ppm, single experiments", "value": "59.2% and 43.2% and 49.7%"},
      {"measurement": "% of efficiency, Mean", "setting": "Phakopsora pachyrhizi [1]; dose 0.32 ppm, mean of experiments", "value": 88.10, "unit": "%"},
      {"measurement": "% of efficiency", "setting": "Phakopsora pachyrhizi [1]; dose 0.32 ppm, single experiments", "value": "80.8% and 94.2% and 89.3%"},
      {"measurement": "% of efficiency, Mean", "setting": "Phakopsora pachyrhizi [1]; dose 1.6 ppm, mean of experiments", "value": 95.20, "unit": "%"},
      {"measurement": "% of efficiency", "setting": "Phakopsora pachyrhizi [1]; dose 1.6 ppm, single experiments", "value": "93.6% and 98.7% and 93.2%"},
      {"measurement": "% of efficiency, Mean", "setting": "Phakopsora pachyrhizi [1]; dose 8 ppm, mean of experiments", "value": 94.99, "unit": "%"},
      {"measurement": "% of efficiency", "setting": "Phakopsora pachyrhizi [1]; dose 8 ppm, single experiments", "value": "89.4% and 98.9% and 96.6%"},
      {"measurement": "% of efficiency, Mean", "setting": "Phakopsora pachyrhizi [1]; dose 40 ppm, mean of experiments", "value": 96.58, "unit": "%"},
      {"measurement": "% of efficiency", "setting": "Phakopsora pachyrhizi [1]; dose 40 ppm, single experiments", "value": "92.3% and 99.5% and 97.8%"}
    ]},
    {"compound": "Cn1cc(C(=O)Nc2ccccc2-c2cc(F)c(F)c(F)c2)c(C(F)F)n1", "note": "[Technical Fluxapyroxad, Fluxapyroxad]", "values": [
      {"measurement": "Efficacy %", "setting": "Phakopsora pachyrhizi [1]; Fluxapyroxad dose 0.000576 ppm", "value": 15.24, "unit": "%"},
      {"measurement": "Efficacy %", "setting": "Phakopsora pachyrhizi [1]; Fluxapyroxad dose 0.00288 ppm", "value": 24.72, "unit": "%"},
      {"measurement": "EC50 (Mean)", "setting": "Phakopsora pachyrhizi [1]; mean of Exp 1-3", "value": "<>0.202 ppm"},
      {"measurement": "EC50", "setting": "Phakopsora pachyrhizi [1]; single experiments Exp 1-3", "value": "<>0.190 ppm and <>0.214 ppm and <>0.202 ppm"},
      {"measurement": "% of efficiency, Mean", "setting": "Phakopsora pachyrhizi [1]; dose 0.0001152 ppm, mean of Exp 1-3", "value": 19.26, "unit": "%"},
      {"measurement": "% of efficiency, Mean", "setting": "Phakopsora pachyrhizi [1]; dose 0.000576 ppm, mean of Exp 1-3", "value": 15.24, "unit": "%"},
      {"measurement": "% of efficiency, Mean", "setting": "Phakopsora pachyrhizi [1]; dose 0.00288 ppm, mean of Exp 1-3", "value": 24.72, "unit": "%"},
      {"measurement": "% of efficiency", "setting": "Phakopsora pachyrhizi [1]; dose 0.00288 ppm, single experiments Exp 1-3", "value": "18.6% and 37.0%"},
      {"measurement": "% of efficiency, Mean", "setting": "Phakopsora pachyrhizi [1]; dose 0.0144 ppm, mean of Exp 1-3", "value": 18.40, "unit": "%"},
      {"measurement": "% of efficiency, Mean", "setting": "Phakopsora pachyrhizi [1]; dose 0.072 ppm, mean of Exp 1-3", "value": 29.12, "unit": "%"},
      {"measurement": "% of efficiency", "setting": "Phakopsora pachyrhizi [1]; dose 0.072 ppm, single experiments Exp 1-3", "value": "28.8% and 28.6% and 29.9%"},
      {"measurement": "% of efficiency, Mean", "setting": "Phakopsora pachyrhizi [1]; dose 0.36 ppm, mean of Exp 1-3", "value": 59.74, "unit": "%"},
      {"measurement": "% of efficiency", "setting": "Phakopsora pachyrhizi [1]; dose 0.36 ppm, single experiments Exp 1-3", "value": "61.7% and 52.3% and 65.2%"},
      {"measurement": "% of efficiency, Mean", "setting": "Phakopsora pachyrhizi [1]; dose 1.8 ppm, mean of Exp 1-3", "value": 80.82, "unit": "%"},
      {"measurement": "% of efficiency", "setting": "Phakopsora pachyrhizi [1]; dose 1.8 ppm, single experiments Exp 1-3", "value": "88.5% and 83.4% and 70.6%"}
    ]},
    {"compound": "CC(Cc1ccc(C(C)(C)C)cc1)CN1CCCCC1", "note": "(racemic) [Technical Fenpropidin, (±)-1-[3-[4-(1,1-dimethylethyl)phenyl]-2-methylpropyl]piperidine]", "values": [
      {"measurement": "Efficacy %", "setting": "Phakopsora pachyrhizi [1]; Fenpropidin dose 0.002304 ppm", "value": 10.17, "unit": "%"},
      {"measurement": "Efficacy %", "setting": "Phakopsora pachyrhizi [1]; Fenpropidin dose 0.01152 ppm", "value": 18.55, "unit": "%"},
      {"measurement": "EC50 (Mean)", "setting": "Phakopsora pachyrhizi [1]; mean of Exp 1-3", "value": ">7.2", "unit": "ppm"},
      {"measurement": "EC50", "setting": "Phakopsora pachyrhizi [1]; single experiments Exp 1-3", "value": ">7.2", "unit": "ppm"},
      {"measurement": "% of efficiency, Mean", "setting": "Phakopsora pachyrhizi [1]; dose 0.0004608 ppm, mean of Exp 1-3", "value": 15.65, "unit": "%"},
      {"measurement": "% of efficiency, Mean", "setting": "Phakopsora pachyrhizi [1]; dose 0.002304 ppm, mean of Exp 1-3", "value": 10.17, "unit": "%"},
      {"measurement": "% of efficiency, Mean", "setting": "Phakopsora pachyrhizi [1]; dose 0.01152 ppm, mean of Exp 1-3", "value": 18.55, "unit": "%"},
      {"measurement": "% of efficiency, Mean", "setting": "Phakopsora pachyrhizi [1]; dose 0.0576 ppm, mean of Exp 1-3", "value": 12.90, "unit": "%"},
      {"measurement": "% of efficiency", "setting": "Phakopsora pachyrhizi [1]; dose 0.0576 ppm, single experiments Exp 1-3", "value": "10.9% and 12.4% and 15.5%"},
      {"measurement": "% of efficiency, Mean", "setting": "Phakopsora pachyrhizi [1]; dose 0.288 ppm, mean of Exp 1-3", "value": 13.31, "unit": "%"},
      {"measurement": "% of efficiency", "setting": "Phakopsora pachyrhizi [1]; dose 0.288 ppm, single experiments Exp 1-3", "value": "15.4% and 9.9% and 14.6%"},
      {"measurement": "% of efficiency, Mean", "setting": "Phakopsora pachyrhizi [1]; dose 1.44 ppm, mean of Exp 1-3", "value": 16.42, "unit": "%"},
      {"measurement": "% of efficiency, Mean", "setting": "Phakopsora pachyrhizi [1]; dose 7.2 ppm, mean of Exp 1-3", "value": 16.74, "unit": "%"},
      {"measurement": "EC50 (in 2018)", "setting": "Phakopsora pachyrhizi [1]; value in brackets, 'in 2018'", "value": "(88.916 ppm in 2018)"},
      {"measurement": "effectiveness against Phakopsora pachyrhizi", "setting": "Phakopsora pachyrhizi [2]", "value": "effective"}
    ]},
    {"compound": "OC(Cc1ccccc1Cl)(Cn1cncn1)C1(Cl)CC1", "note": "(stereo not shown) [Desthio-prothiconazole, Desthio-prothioconazole]", "values": [
      {"measurement": "Efficacy %", "setting": "Phakopsora pachyrhizi [1]; Desthio-prothioconazole dose 0.004544 ppm", "value": 38.49, "unit": "%"},
      {"measurement": "Efficacy %", "setting": "Phakopsora pachyrhizi [1]; Desthio-prothioconazole dose 0.02272 ppm", "value": 49.44, "unit": "%"}
    ]}
  ]
}
